Columns and labels:
AP-1 = assay: Cellular Transrepressional Assay (AP-1 luciferase reporter in A549 cells); type: cell-based; settings: A549 cell stably transfected with pAP-1-Luc, 10 ng/ml PMA, 7 hours; for AP-1 Max % inh (Cellular Transrepression Assay): maximum inhibition; for EC50: read-out: AP-1 EC50, nM (Cellular Transrepression Assay)
Procedure: Cellular Transrepressional Assay
To measure the ability of test molecules to inhibit AP-1 induced transcriptional activity, an A549 cell was utilized which was stably transfected with a plasmid containing 7×AP-1 DNA binding sites (pAP-1-Luc plasmid, Stratagene Co. La Jolla, Calif.) followed by the gene for luciferase. Cells were activated with 10 ng/ml of […] (PMA) plus or minus test molecules for 7 hours. After 7 hours a luciferase reagent was added to measure luciferase enzymatic activity in the cell. After a 10 minute incubation of luciferase reagent with cells, luminescence was measured in a TopCount luminescence counter. Repression of AP-1 activity was calculated as the percentage decrease in the signal induced by PMA alone. Test molecules were analyzed in the concentration range from 0.1 nM to 40 μM. EC50s were determined by using standard curve fitting methods such as Excel fit (Microsoft Co.).

[1] = target: T1, human glucocorticoid receptor (Homo sapiens, UniProt P04150); assay: Glucocorticoid Receptor Binding Assay (fluorescence polarization competitor kit); settings: purified human recombinant full-length GR 2 nM, 1 nM Fluormone GS Red, 2 h room temperature
T1 construct: purified human recombinant full-length glucocorticoid receptor (2 nM); purchased Invitrogen Part #2893
T1 sequence (P04150 1-777): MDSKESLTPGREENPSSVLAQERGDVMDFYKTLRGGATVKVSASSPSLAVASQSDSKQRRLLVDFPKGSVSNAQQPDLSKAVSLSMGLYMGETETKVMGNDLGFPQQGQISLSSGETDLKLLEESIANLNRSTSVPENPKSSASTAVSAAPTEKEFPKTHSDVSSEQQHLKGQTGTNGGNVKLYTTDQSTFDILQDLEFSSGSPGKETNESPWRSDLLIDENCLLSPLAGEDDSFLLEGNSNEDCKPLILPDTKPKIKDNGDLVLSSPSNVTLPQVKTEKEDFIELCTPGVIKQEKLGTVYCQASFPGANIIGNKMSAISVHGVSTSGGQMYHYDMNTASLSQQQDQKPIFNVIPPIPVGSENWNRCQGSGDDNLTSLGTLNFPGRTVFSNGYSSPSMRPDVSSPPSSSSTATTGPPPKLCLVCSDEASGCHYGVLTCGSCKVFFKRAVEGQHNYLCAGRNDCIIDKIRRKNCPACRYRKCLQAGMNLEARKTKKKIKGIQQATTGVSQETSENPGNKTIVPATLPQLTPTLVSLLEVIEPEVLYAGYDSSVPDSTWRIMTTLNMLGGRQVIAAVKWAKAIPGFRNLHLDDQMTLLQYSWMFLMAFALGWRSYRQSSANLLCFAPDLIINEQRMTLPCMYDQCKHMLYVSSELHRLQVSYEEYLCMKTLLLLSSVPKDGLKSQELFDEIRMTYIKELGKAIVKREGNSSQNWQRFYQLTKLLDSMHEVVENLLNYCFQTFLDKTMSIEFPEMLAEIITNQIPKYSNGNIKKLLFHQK
Procedure: Glucocorticoid Receptor Binding Assay
In order to assess the affinity of test compounds for the human glucocorticoid receptor, a commercially available kit was used (Glucocorticoid Receptor Competitor Assay Kit, Invitrogen Part #2893). Briefly, purified human recombinant full-length glucocorticoid receptor (2 nM) was mixed with fluorescently labeled glucocorticoid (1 nM Fluormone GS Red) in the presence or absence of test compound. After two hour incubation at room temperature in the dark, the fluorescence polarization (FP) of the samples was measured. […] Test compounds were analyzed in the concentration range from 8.5E-05 μM to 5 μM.

EC50 (AP-1) [nM] | Ki [1] [nM] | Structure (SMILES) | AP-1 Max % inh (Cellular Transrepression Assay) (AP-1) [%]
112 | – | CC(C)(C(=O)Nc1nncs1)C(c1ccccc1)c1ccn2c(-c3ccccc3)ncc2c1 (stereo not shown) [Example 1, 2,2-Dimethyl-3-phenyl-3-(3-phenylH-imidazo[1,5-a]pyridin-7-yl)-N-(1,3,4-thiadiazol-2-yl)propanamide] | 63.58
– | 16.5 | CC(C)(CNC(=O)C(F)(F)F)C(c1ccccc1)c1ccn2c(-c3ccccc3)ncc2c1 (stereo not shown) [Example 2, N-(2,2-Dimethyl-3-phenyl-3-(3-phenylH-imidazo[1,5-a]pyridin-7-yl)propyl)-2,2,2-trifluoroacetamide] | –
– | 27.4 | CCOC(=O)NCC(C)(C)C(c1ccccc1)c1ccn2c(-c3ccccc3)ncc2c1 (stereo not shown) [Example 3, Ethyl 2,2-dimethyl-3-phenyl-3-(3-phenylH-imidazo[1,5-a]pyridin-7-yl)propylcarbamate] | –
– | 13 | CC(C)(C(=O)Nc1nccs1)C(c1ccccc1)c1ccc2cncn2c1 (stereo not shown) [Example 4, 3-(H-Imidazo[1,5-a]pyridin-6-yl)-2,2-dimethyl-3-phenyl-N-(thiazol-2-yl)propanamide] | –
34.1 | – | CC(C)(C(=O)Nc1nccs1)C(c1ccccc1)c1ccc2c(-c3ccc(F)cc3)ncn2c1 (stereo not shown) [Example 5, 3-(1-(4-Fluorophenyl)H-imidazo[1,5-a]pyridin-6-yl)-2,2-dimethyl-3-phenyl-N-(thiazol-2-yl)propanamide] | 71.08
– | 30.2 | CC(C)(C(=O)Nc1nccs1)C(c1ccccc1)c1ccc2c(Br)ncn2c1 (stereo not shown) [Example 6, 3-(1-BromoH-imidazo[1,5-a]pyridin-6-yl)-2,2-dimethyl-3-phenyl-N-(thiazol-2-yl)propanamide] | –
– | 17 | CC(C)(C(=O)Nc1nccs1)C(c1ccccc1)c1ccc2c(-c3cccc(C#N)c3)ncn2c1 (stereo not shown) [Example 7, 3-(1-(3-Cyanophenyl)H-imidazo[1,5-a]pyridin-6-yl)-2,2-dimethyl-3-phenyl-N-(thiazol-2-yl)propanamide] | –
– | 169 | CC(C)(C(=O)Nc1nccs1)C(c1ccccc1)c1ccc2nncn2c1 (stereo not shown) [Example 8, 3-([1,2,4]-Triazolo[4,3-a]pyridin-6-yl)-2,2-dimethyl-3-phenyl-N-(thiazol-2-yl)propanamide] | –
10.1 | – | CC(C)(C(=O)Nc1nccs1)C(c1ccccc1)c1ccn2c(-c3ccccc3)ncc2c1 (stereo not shown) [Example 9] | 67.35
– | 7.3 | CC(C)(C(=O)NC1CC1)C(c1ccccc1)c1ccn2c(-c3ccccc3)ncc2c1 (stereo not shown) [Example 10] | –
– | 27.1 | CC(C)(C(=O)Nc1nncs1)C(c1ccccc1)c1ccn2cncc2c1 (stereo not shown) [Example 11] | –
– | 17.7 | CC(C)(C(=O)Nc1nccs1)C(c1ccccc1)c1ccn2cncc2c1 (stereo not shown) [Example 12] | –
– | 19.5 | CC(C)(C(=O)Nc1nncs1)C(c1ccccc1)c1ccc2cncn2c1 (stereo not shown) [Example 13] | –
43.6 | – | CC(C)(C(=O)Nc1nncs1)C(c1ccccc1)c1ccc2c(-c3ccc(F)cc3)ncn2c1 (stereo not shown) [Example 14] | 55.80
– | 22.6 | CC(C)(C(=O)Nc1nncs1)C(c1ccccc1)c1ccc2c(-c3cccc(C#N)c3)ncn2c1 (stereo not shown) [Example 15] | –
– | 26.2 | CC(C)(C(=O)Nc1nccs1)C(c1ccccc1)c1ccc2c(-c3ccc(C#N)cc3)ncn2c1 (stereo not shown) [Example 16] | –
13 | – | CC(C)(C(=O)Nc1nccs1)C(c1ccccc1)c1ccc2c(-c3ccc(F)cc3F)ncn2c1 (stereo not shown) [Example 18] | 55.81
16 | – | CC(C)(C(=O)Nc1nncs1)C(c1ccccc1)c1ccc2c(-c3ccc(F)cc3F)ncn2c1 (stereo not shown) [Example 19] | 45.65
– | 65.9 | CC(C)(C(=O)Nc1nccs1)C(c1ccccc1)c1ccc2c(-c3ccc(F)c(Cl)c3)ncn2c1 (stereo not shown) [Example 20] | –
– | 46.6 | CC(C)(C(=O)Nc1nncs1)C(c1ccccc1)c1ccc2c(-c3ccc(F)c(Cl)c3)ncn2c1 (stereo not shown) [Example 21] | –
– | 12.2 | CC(C)(C(=O)Nc1nncs1)C(c1ccccc1)c1ccc2c(-c3cccc(CO)c3)ncn2c1 (stereo not shown) [Example 22] | –
– | 36 | Cc1cscc1-c1ncn2cc(C(c3ccccc3)C(C)(C)C(=O)Nc3nncs3)ccc12 (stereo not shown) [Example 23] | –
– | 327 | CC(C)(C(=O)Nc1nncs1)C(c1ccccc1)c1ccc2nncn2c1 (stereo not shown) [Example 24] | –
– | 2360 | Cc1nnc2ccc(C(c3ccccc3)C(C)(C)C(=O)Nc3nccs3)cn12 (stereo not shown) [Example 25] | –
– | 5450 | Cc1nnc2ccc(C(c3ccccc3)C(C)(C)C(=O)Nc3nncs3)cn12 (stereo not shown) [Example 26] | –
